Test results: the supplement of paper PMC11451515

Tested on: SEM cells
Assay: cell viability relative to DMSO control; higher = less cytotoxic
Conditions: 48 h
Procedure, shortened: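 Viability values are per-plate percentages of DMSO wells, with background from cell-free wells. Library compounds in DMSO were pin-dosed, in an 11-point threefold series from 47 μM to 0.79 nM, onto NOMO1 or SEM (500 cells/well) or P12-Ichikawa (1000 cells/well) leukemia cells in 1536-well plates (5 μl). Those cells had been adapted for at least four passages in each medium, and CellTiter-Glo One luminescence was read after 48 h at 37°C.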

[1] = HPLM + 10% dialyzed FBS, 0.000781 µM
[2] = HPLM + 10% dialyzed FBS, 0.00234 µM
[3] = HPLM + 10% dialyzed FBS, 0.00702 µM
[4] = HPLM + 10% dialyzed FBS, 0.0211 µM
[5] = HPLM + 10% dialyzed FBS, 0.0632 µM
[6] = HPLM + 10% dialyzed FBS, 0.19 µM
[7] = HPLM + 10% dialyzed FBS, 0.569 µM
[8] = HPLM + 10% dialyzed FBS, 1.71 µM
[9] = HPLM + 10% dialyzed FBS, 5.12 µM
[10] = HPLM + 10% dialyzed FBS, 15.4 µM
[11] = HPLM + 10% dialyzed FBS, 46.1 µM
[12] = RPMI 5 mM glucose + 10% FBS, 0.000781 µM
[13] = RPMI 5 mM glucose + 10% FBS, 0.00234 µM
[14] = RPMI 5 mM glucose + 10% FBS, 0.00702 µM
[15] = RPMI 5 mM glucose + 10% FBS, 0.0211 µM
[16] = RPMI 5 mM glucose + 10% FBS, 0.0632 µM
[17] = RPMI 5 mM glucose + 10% FBS, 0.19 µM
[18] = RPMI 5 mM glucose + 10% FBS, 0.569 µM
[19] = RPMI 5 mM glucose + 10% FBS, 1.71 µM
[20] = RPMI 5 mM glucose + 10% FBS, 5.12 µM
[21] = RPMI 5 mM glucose + 10% FBS, 15.4 µM
[22] = RPMI 5 mM glucose + 10% FBS, 46.1 µM
[23] = RPMI 5 mM glucose + 10% dialyzed FBS, 0.000781 µM
[24] = RPMI 5 mM glucose + 10% dialyzed FBS, 0.00234 µM
[25] = RPMI 5 mM glucose + 10% dialyzed FBS, 0.00702 µM
[26] = RPMI 5 mM glucose + 10% dialyzed FBS, 0.0211 µM
[27] = RPMI 5 mM glucose + 10% dialyzed FBS, 0.0632 µM
[28] = RPMI 5 mM glucose + 10% dialyzed FBS, 0.19 µM
[29] = RPMI 5 mM glucose + 10% dialyzed FBS, 0.569 µM
[30] = RPMI 5 mM glucose + 10% dialyzed FBS, 1.71 µM
[31] = RPMI 5 mM glucose + 10% dialyzed FBS, 5.12 µM
[32] = RPMI 5 mM glucose + 10% dialyzed FBS, 15.4 µM
[33] = RPMI 5 mM glucose + 10% dialyzed FBS, 46.1 µM

Structure (SMILES)	cell viability [1] [%]	cell viability [2] [%]	cell viability [3] [%]	cell viability [4] [%]	cell viability [5] [%]	cell viability [6] [%]	cell viability [7] [%]	cell viability [8] [%]	cell viability [9] [%]	cell viability [10] [%]	cell viability [11] [%]	cell viability [12] [%]	cell viability [13] [%]	cell viability [14] [%]	cell viability [15] [%]	cell viability [16] [%]	cell viability [17] [%]	cell viability [18] [%]	cell viability [19] [%]	cell viability [20] [%]	cell viability [21] [%]	cell viability [22] [%]	cell viability [23] [%]	cell viability [24] [%]	cell viability [25] [%]	cell viability [26] [%]	cell viability [27] [%]	cell viability [28] [%]	cell viability [29] [%]	cell viability [30] [%]	cell viability [31] [%]	cell viability [32] [%]	cell viability [33] [%]
CC(C)c1nc(CN(C)C(=O)N[C@H](C(=O)N[C@@H](Cc2ccccc2)C[C@H](O)[C@H](Cc2ccccc2)NC(=O)OCc2cncs2)C(C)C)cs1	84.8	90.5	101	87.5	96.2	91.6	85	85.1	81.5	62.6	74.4	94.9	103	110	103	90.7	89.7	84.8	88.8	87.3	80.1	87.5	104	113	98.4	85	106	86.1	94.8	105	92.4	88.1	99.8
Nc1ncnc2c1ncn2[C@@H]1O[C@@H](CO)[C@H](O)[C@@H]1O	93.8	90.1	111	119	124	117	109	109	115	118	62.4												106	105	116	112	130	144	121	123	123	84.9	50.2
COC(=O)Nc1cc(Nc2cc(NC3CC3)c3ncc(C#N)n3n2)c(Cl)c(N2CCN(C)CC2)c1	97.9	103	98.7	98.5	98	102	86.5	77.7	37.9	5.22	4.93												113	122	110	109	103	95	84.4	61.9	29.9	5.89	5.24
O=C(c1ccc(F)cc1)N1CCC[C@H](c2nc(-c3ccc(F)cc3)no2)C1	119	120	122	112	128	114	111	104	102	105	115	119	111	124	121	128	117	111	112	99.4	106	116	104	103	130	125	105	116	118	113	102	101	128
N[S+]([O-])(=O)C1=CC=C(NC/2=C/C(=O)C3=CC=CC=C3C2=O)C=C1	97.3	106	109	108	115	110	123	110	82.6	97.8	71.3	96.2	103	99.4	98.6	87.5	83.9	92.2	92.5	53.4	57.2	46.3	122	74.4	108	105	106	120	103	108	71.3	85.3	50.7
O=C1[C@H](Cc2ccc(O)cc2)N2C(=O)CCN(C(=O)NCc3ccccc3)[C@H]2CN1Cc1cccc2ccccc12	51.6	86.6	103	93.6	77	74.3	77.4	62.8	64.8	12.3	51.3	64.9	108	99.7	98.1	76.7	93.6	86.2	83.9	78.6	15.2	65.6	55.1	101	94.7	95	83	93.3	74.1	73.8	73.3	15.3	63.2
COC(=O)C[C@](O)(CCCC(C)(C)O)C(=O)O[C@@H]1C(OC)=CC23CCCN2CCc2cc4c(cc2[C@H]13)OCO4 (some centres undefined)	106	103	108	108	105	120	119	109	94.5	92.5	102	98.4	101	106	98.1	111	111	95.9	89.6	84.3	96.9	93.3	104	100	104	106	97.2	103	105	97.5	99.7	99.9	102
